Source: article PMC12676205, “New Se‐Compounds With Antileishmanial, Antitumor, and Carbonic Anhydrase Inhibitory Properties” (Archiv Der Pharmazie, 2025)
Where two headings read alike, the source gives them in different places.

How the values were obtained:
hCA II = molecular target: T1, hCA II (Homo sapiens, UniProt P00918); test: hCA II inhibition, stopped-flow CO2 hydration assay; format: biochemical; details: stopped flow technique, mean from three assays
T1 construct: made in house
Method: An Applied Photophysics stopped‐flow instrument was used to assay the CA‐catalyzed CO2 hydration activity [52]. […] The uncatalyzed rates were determined in the same manner and subtracted from the total observed rates. Stock solutions of the inhibitor (0.1 mM) were prepared in distilled–deionized water, and dilutions up to 0.01 nM were done thereafter with the assay buffer. Inhibitor and enzyme solutions were preincubated together for 15 min at room temperature before the assay, to allow for the formation of the E–I complex. The inhibition constants were obtained by Nonlinear least‐squares methods using PRISM 3 and the Cheng‐Prusoff equation as reported earlier and represent the mean from at least three different determinations. All CA isoforms were recombinant proteins obtained in‐house, as reported earlier [54, 55, 56].

[1] = system: NCI‐60 human cancer cell lines; test: NCI-60 one-dose screen, whole panel; format: cell-based; details: 10 µM, 48 h, whole NCI-60 panel
Method: (§1) To explore the potential antiproliferative properties of the newly synthesized derivatives, they were submitted to the National Cancer Institute's (NCI) Developmental Therapeutics Program (DTP) for screening at 10 μM in a panel of approximately 60 human cancer cell lines from different cancer types. The results are reported as the growth percentage (GP), which is the growth of the treated cells with each compound for 48 h compared to the untreated controls (Figure 2). […] The initial screening results are summarized in Figure 2, and the mean GP values of each subpanel are depicted in Figure 3. The full reports are compiled in the Supplementary Section.
(§2) All the reported selenoesters (1–6) were submitted to the DTP of NCI. First, they were screened at a single dose (10^−5 M) against a panel of 60 cancer cell lines derived from different tumor types following the methodology available (https://dtp.cancer.gov/discovery_development/nci-60/methodology.htm). As all the compounds satisfied the threshold inhibition criteria established, they were further assessed at five concentrations (0.01, 0.1, 1, 10, and 100 µM) against the same cell panel to obtain their corresponding dose–response curves and three antitumor parameters (GI50, TGI, and LC50) by regression. GraphPad Prism 7.0 Software was used to represent the corresponding graphs.

Leukemia subpanel = test: NCI-60 one-dose screen, leukemia subpanel; format: cell-based, human; details: 10 µM, 48 h
Method: as §1, §2

Colon subpanel = test: NCI-60 one-dose screen, colon subpanel; format: cell-based, human; details: 10 µM, 48 h
Method: as §1, §2

Melanoma subpanel = test: NCI-60 one-dose screen, melanoma subpanel; format: cell-based, human; details: 10 µM, 48 h
Method: as §1, §2

Prostate subpanel [2] = test: NCI-60 one-dose screen, prostate subpanel; format: cell-based, human; details: 10 µM, 48 h
Method: as §1, §2

[3] = system: HCC‐2998‐resistant colon cancer cells; test: NCI-60 one-dose screen, HCC-2998; format: cell-based, human; details: 10 µM, 48 h
Method: as §1, §2

[4] = system: NSCL (non‐small‐cell lung cancer) subpanel; test: NCI-60 five-dose assay, NSCL subpanel; format: cell-based; details: Homo sapiens, 48 h; for GI50: read-out: Mean GI50 NSCL; for LC50 (50% lethal concentration): read-out: Mean LC50 NSCL
Method: (§3) All the compounds were selected for further testing since they fulfilled the set NCI one‐dose screening parameters for threshold inhibition. They were tested at five different concentrations (0.01, 0.1, 1, 10, and 100 μM) for 48 h against the same cell line panel and the dose–response curves along with three response parameters (50% growth inhibitory concentration [GI50], the 50% lethal concentration [LC50], and the total growth inhibition [TGI]) were calculated for every cancer cell line. The full reported data and corresponding graphs are compiled in Supporting Information S1. Average values of GI50, TGI, and LC50 values of all the reported selenoesters in all the subpanels are represented in Figure 4.
as §2

CNS subpanel = test: NCI-60 five-dose assay, CNS subpanel; format: cell-based; details: Homo sapiens, 48 h; for GI50: read-out: Mean GI50 CNS; for LC50: read-out: Mean LC50 CNS
Method: as §3, §2

Prostate subpanel [5] = test: NCI-60 five-dose assay, prostate subpanel; format: cell-based, human; details: 48 h; for GI50 / CC50: Homo sapiens; for GI50: read-out: Mean GI50 Prostate; for CC50: read-out: Mean LC50 Prostate
Method: as §3, §2

Breast subpanel = test: NCI-60 five-dose assay, breast subpanel; format: cell-based; details: Homo sapiens, 48 h; for GI50: read-out: Mean GI50 Breast; for LC50: read-out: Mean LC50 Breast
Method: as §3, §2

L. major promastigotes = test: Leishmanicidal activity against promastigotes (MTT), L. major; format: cell-based, Leishmania major
Method: (§4) The synthesized compounds were tested for their antileishmanial activity against promastigotes of L. major and L. infantum at four concentrations (1, 10, 50, and 100 µM) for 48 h using the 3‐(4,5‐dimethylthiazol‐2‐yl)‐2,5‐diphenyltetrazolium bromide (MTT) assay. In this evaluation, the activity was expressed in IC50 (concentration inhibiting the parasite growth by 50%). […] The CC50 was defined as the concentration of selenoesters that led to a reduction in the viability of the macrophages, such that only 50% of the cells survived when compared to the control group. This cell line, derived from the blood of a human with acute monocytic leukemia, was chosen as it has been widely reported that it resembles tissue macrophages to various extents as well as supports the infection by numerous Leishmania promastigotes. The selectivity indexes (SIs) were calculated as the ratio between toxicity on macrophages (THP‐1 cells)/antileishmanial activity. The data for standard control drugs (miltefosine and paromomycin) are included for comparison purposes.
The promastigotes of L. major (clone VI, MHOM/IL/80/Friendlin) and L. infantum (BCN‐150) were grown at 26°C under continuous shaking in M199 1× medium (Sigma, USA). This media was supplemented with 10% of heat‐inactivated fetal bovine serum (FBS) (Gibco, USA), 0.0005% (w/v) hemin, 0.1 mM adenine, 25 mM HEPES (pH 7.2), 0.0001% (w/v) biotin, and 100 UI/mL penicillin and […] streptomycin (Gibco, USA).
The antileishmanial activity of the reported selenoesters was determined using the MTT assay as previously described during the logarithmic growth phase of the tested promastigotes of L. major and L. infantum. Briefly, the Leishmania parasites were seeded into 96‐well flat‐bottom plates (3 × 10^5 parasites/100 µL) and treated with four different concentrations ranging between 1 and 100 µM of each selenoester at 26°C for 48 h. Afterwards, 20 µL of MTT (5 mg/mL in PBS) was added to each well and incubated for 4 h under the same conditions. Then, 80 µL/well of DMSO was added to dissolve the resultant formazan crystals. The absorbances were determined on a Multiskan EX photometric plate reader for microplates at 540 nm. Three independent experiments performed in triplicate were carried out for each compound, and OriginPro 8.5.1 Software was used to calculate the IC50 values by fitting the data to a dose–inhibition sigmoid curve.

[6] = THP-1 cytotoxicity (MTT, PMA-differentiated macrophages); format: cell-based, human; details: human, THP-1 cells differentiated into macrophages with PMA, mean ± SD
Method: as §4
THP‐1 cells were seeded at a concentration of 8 × 10^4 cells per well in 96‐well plates and incubated with phorbol 12‐myristate 13‐acetate (PMA) (50 ng/mL) for 72 h (37°C and 5% CO2) to differentiate them into macrophages. After that, the culture medium was removed and the cells were treated with the reported selenoesters at different increasing concentrations ranging from 1 to 200 µM for 48 h at 37°C and 5% of CO2. Macrophages treated with DMSO (1%) were used as controls, and the compounds were dissolved in DMSO at a stock concentration of 10^−2 M. Afterward, the MTT assay was performed. Data were obtained from three independent experiments performed in triplicate. The absorbance was measured at 550 nm using a MultiskanEX photometric plate reader for microplates. The CC50 values were calculated using OriginPro 8.5.1. software by nonlinear curve fitting. SIs were calculated as the ratio of the CC50 values determined for the macrophages and the IC50 values obtained in each Leishmania promastigote. GraphPad Prism 7.0 Software was used to obtain the corresponding graphs.

[7] = Leishmania major, 48 h, mean ± SD, read-out: L. major IC50
[8] = 48 h, mean ± SD, read-out: L. major IC50
[9] = read-out: L. major IC50, 48 h, mean ± SD

Compound	Ki (hCA II) [µM]	mean GP (growth percentage) [1] [%]	average growth cell value, Leukemia (Leukemia subpanel) [%]	average growth cell value, Colon (Colon subpanel) [%]	average growth cell value, Melanoma (Melanoma subpanel) [%]	average growth cell value, Prostate (Prostate subpanel [2]) [%]	behaviour in HCC‐2998 [3]	GI50 [4] [µM]	LC50 (50% lethal concentration) [4] [µM]	GI50 (CNS subpanel) [µM]	LC50 (CNS subpanel) [µM]	GI50 (Prostate subpanel [5]) [µM]	CC50 (Prostate subpanel [5]) [µM]	GI50 (Breast subpanel) [µM]	LC50 (Breast subpanel) [µM]	IC50 (L. major promastigotes; [7]) [µM]	CC50 at 48 h [6] [µM]	cytotoxic activity (LC50) in the prostate cancer subpanel (Prostate subpanel [5]; five-dose)	IC50 (L. major promastigotes; [8]) [µM]	IC50 (L. major promastigotes; [9]) [µM]
N#Cc1ccc(NC(=O)C[Se]C(=O)c2ccccc2)cc1C(F)(F)F [Compound 1, Se‐(2‐((4‐cyano‐3‐(trifluoromethyl)phenyl)amino)‐2‐oxoethyl)benzoselenoate]	80.4	−94.16	-96.53	-95.24	-94.28	-95.47	susceptible	1.54	5.61	1.37	5.64	1.54	5.91	1.61	8.02	26.6 ± 1.81				
O=C(C[Se]C(=O)c1ccco1)Nc1ccc([N+](=O)[O-])c(C(F)(F)F)c1 [Compound 5, Se‐(2‐((4‐nitro‐3‐(trifluoromethyl)phenyl)amino)‐2‐oxoethyl)furan‐2‐carboselenoate]	83.3		6.59	-17.82	-56.28	-27.89	susceptible	1.9		2.04		1.85	54.4	2.01		18.3 ± 5.9	108 ± 5.53			
O=C(C[Se]C(=O)c1ccccc1)Nc1ccc([N+](=O)[O-])c(C(F)(F)F)c1 [Compound 2, Se‐(2‐((4‐nitro‐3‐(trifluoromethyl)phenyl)amino)‐2‐oxoethyl)benzoselenoate]	50.4	−91.96	-94.69	-81.88	-94.64	-94.40	susceptible	1.41	5.36	1.17	5.17	1.44	5.66	1.48	7.68	27.1 ± 3.35				
O=C(C[Se]C(=O)c1ccco1)Nc1cccc(OC(F)(F)F)c1 [Compound 6, Se‐(2‐oxo‐2‐((3‐(trifluoromethoxy)phenyl)amino)ethyl)furan‐2‐carboselenoate]	8.2		39.71	31.61	-18.35	-15.23		3.64		3.08		5.38	100	3.08		6 to 10	38.7 ± 6.71	devoid of activity	10.1 ± 1.27	< 10
O=C(C[Se]C(=O)c1ccccc1)Nc1cccc(OC(F)(F)F)c1 [Compound 3, Se‐(2‐oxo‐2‐((3‐(trifluoromethoxy)phenyl)amino)ethyl)benzoselenoate]	82.4	−43.99	-36.81	25.15	-50.62	-48.28		2.3	13.2	2.07	9	2.16	12.6	2.62	22.6	6 to 10	≥ 200		9.67 ± 0.78	< 10
